Series [1] concerns rabbit erythrocytes. Kind of series: Hemolysis assay. Particulars: rabbit erythrocytes 4% (v/v), 256 μg/mL peptide, 1 h 37 °C, absorbance 570 nm, 0.1% Triton X-100 control. Here is the method: The hemolytic activity of peptides was tested using rabbit erythrocytes (Figure S13). […]
the supernatant was collected and analyzed by RP-HPLC, with a UV detector monitored at 220 nm. Record the peak area of the intact peptide and calculate the percentage of remaining peptide based on the integrated area as, Peptide remaining (%) = peak area of remaining peptide/peak area of intact peptide×100%. Experiments were performed […]
with 200 μL of 4% (v/v) rabbit erythrocyte suspension, and the mixed solution was diluted with rabbit red blood cell suspension to obtain a series of peptide stock solution with different concentrations by fold dilution. […] Separate the supernatant and use a microplate reader (BioTek, USA) to measure hemoglobin release. Measure the absorbance at a wavelength of 570nm and calculate the percentage of hemolysis as follows: hemolysis (%) = (Abspeptide-Absblank)/(Abscontrol-Absblank), where Absblank and Abscontrol were absorbance of samples treated with PBS and 0.1% Triton X-100, […]
N-phenyl-1-naphthylamine (NPN, Macklin, China) was used to evaluate the integrity of OM of E. coli treated with the linear and stapled peptides. […] Subsequently, add a final concentration of 10 μM of NPN in each well of the plate and after incubation for 30 m inutes, record the fluorescence at 420 nm using a microplate reader with an exc itation wavelength of 350 […]

Series [2] concerns E. coli. Particulars: CLSI broth microdilution, MH-II broth, 24 h 37 °C, AlamarBlue; ATCC 25922; 3 independent measurements.
The test system of series [3] is E. faecalis. To be noted: CLSI broth microdilution, MH-II broth, 24 h 37 °C, AlamarBlue; ATCC 29212; 3 independent measurements.
Series [4] has as its system S. epidermidis. Particulars: CLSI broth microdilution, MH-II broth, 24 h 37 °C, AlamarBlue; ATCC 12228; 3 independent measurements.
Series [5] deals with K. pneumoniae. Particulars: CLSI broth microdilution, MH-II broth, 24 h 37 °C, AlamarBlue; ATCC 13883; 3 independent measurements.

Values after ≈ are worked out from the molar mass of the structure shown. Positions of bridges follow the written chain, without caps; N, C: chain ends. Non-standard residues stand in square brackets, D forms with d. Residues, ends and D or L forms follow the SMILES beside them. S5 = C=CCCC[C@](C)(N)C(=O)O

Regarding `CC[C@H](C)[C@H](NC(=O)[C@H](CCCNC(=N)N)NC(=O)[C@H](CCCCN)NC(C)=O)C(=O)N[C@H](C(=O)N[C@@H](CCC(N)=O)C(=O)N[C@@H](CCCNC(=N)N)C(=O)N[C@H](C(=O)N[C@@]1(C)CCCC=CCCC[C@@](C)(C(N)=O)NC(=O)[C@H](CC(C)C)NC(=O)[C@H](Cc2ccccc2)NC(=O)[C@H](CC(=O)O)NC1=O)[C@@H](C)CC)C(C)C` [KR-12 (K8, R12)] (Ac-KRIVQRI[S5]DFL[S5]-NH2; staple 8-12), the “H256 (hemolysis percentage)” value in series [1] was 77.2 ± 0.3%. For the same compound, the “MIC E. coli” value in series [2] was 64 µg/mL (≈ 40.5 µM). Further, the “MIC E. faecalis” value in series [3] came out at 16 µg/mL (≈ 10.1 µM). For the same compound, the “MIC S. epidermidis” value in series [4] came out at 16 µg/mL (≈ 10.1 µM). Moreover, the “MIC K. pneumoniae” value in series [5] is above 256 µg/mL.

These data come from publication PMC10845205, “Discovery of novel antibacterial agent for the infected wound treatment: all-hydrocarbon stapling optimization of LL-37” (Theranostics, 2024).
